Source: article PMC5975834 (2015)

Assays:
[1] = system: 5 bp Bi-quadruplex (DNA, G4) GGGTAGGGCGGGTTGGGTTTTTGGGTAGGGCGGGTTGGG; settings: K+ 20 mM KAc, 70 mM KCl (assumed KAc buffer)
[2] = system: 10 bp Bi-quadruplex (DNA, G4) GGGTAGGGCGGGTTGGGTTTTTTTTTTGGGTAGGGCGGGTTGGG; settings: K+ 20 mM KAc, 70 mM KCl (assumed KAc buffer)
[3] = system: 15 bp Bi-quadruplex (DNA, G4) GGGTAGGGCGGGTTGGGTTTTTTTTTTTTTTTGGGTAGGGCGGGTTGGG; settings: K+ 20 mM KAc, 70 mM KCl (assumed KAc buffer)
[4] = system: Hairpin-based allosteric TSDzyme (DNA, G4) AGGCAGTTGAGACGAACATTCCTAAGTCTGAAATTTATCACCCGCCATAGTAGACGTATCACC/CTTGCTACACGATTCAGACTTAGGAATGTTCGACATGCGAGGGTCCAATACCGACGATTACAG/GGTGATAAAACGTGTAGCAAGCTGTAATCGACTCTAGCGGAAGAACCCACAACCGCGGCTCACTACTATGGCG/GGGTAGGGCGGGTTGGGTTAGAGACGGTATTGGACCCTCGCATGACTCAACTGCCTGGTGATACGAGAGCCTGGGTAGGGCGGGTTGGG; settings: K+ 20 mM KAc, 70 mM KCl (assumed KAc buffer)
[5] = system: ATP-based allosteric TSDzyme (DNA, G4) AGGCAGTTGAGACGAACATTCCTAAGTCTGAAATTTATCACCCGCCATAGTAGACGTATCACC/CTTGCTACACGATTCAGACTTAGGAATGTTCGACATGCGAGGGTCCAATACCGACGATTACAG/GGTGATAAAACGTGTAGCAAGCTGTAATCGACTCTAACCTGGGGGAGTATTGCGGAGGAAGGTGGCTCACTACTATGGCG/GGGTAGGGCGGGTTGGGTTAGAGACGGTATTGGACCCTCGCATGACTCAACTGCCTGGTGATACGAGAGCCTGGGTAGGGCGGGTTGGG; settings: K+ 20 mM KAc, 70 mM KCl (assumed KAc buffer)
[6] = system: G-quadruplex (free hemin-G) (DNA, G4) GGGTAGGGCGGGTTGGG; test: hemin absorbance at 404 nm vs DNA concentration; settings: K+ 20 mM KAc, 70 mM KCl (assumed KAc buffer)
[7] = system: TSDzyme (out) (DNA, G4) GGGTAGGGCGGGTTGGGCAGTTGAGACGAACATTCCTAAGTCTGAAATTTATCACCCGCCATAGTAGACGTATCACCAGG/CTTGCTACACGATTCAGACTTAGGAATGTTCGACATGCGAGGGTCCAATACCGACGATTACAG/GGTGATAAAACGTGTAGCAAGCTGTAATCGACGGGAAGAGCATGCCCATCCACTACTATGGCG/CCTCGCATGACTCAACTGCCTGGTGATACGAGGATGGGCATGCTCTTCCCGACGGTATTGGAC; test: hemin absorbance at 404 nm vs DNA concentration; settings: K+ 20 mM KAc, 70 mM KCl (assumed KAc buffer)
[8] = system: TSDzyme (in) (DNA, G4) GGGTAGGGCGGGTTGGGCCAGGCAGTTGAGACGAACATTCCTAAGTCTGAAATTTATCACCCGCCATAGTAGACGTATCA/CTTGCTACACGATTCAGACTTAGGAATGTTCGACATGCGAGGGTCCAATACCGACGATTACAG/GGTGATAAAACGTGTAGCAAGCTGTAATCGACGGGAAGAGCATGCCCATCCACTACTATGGCG/CCTCGCATGACTCAACTGCCTGGTGATACGAGGATGGGCATGCTCTTCCCGACGGTATTGGAC; test: hemin absorbance at 404 nm vs DNA concentration; settings: K+ 20 mM KAc, 70 mM KCl (assumed KAc buffer)
[9] = system: G-quadruplex (free hemin-G) (DNA, G4) GGGTAGGGCGGGTTGGG; test: free energy of hemin/G-quadruplex complex formation
[10] = system: TSDzyme (out) (DNA, G4) GGGTAGGGCGGGTTGGGCAGTTGAGACGAACATTCCTAAGTCTGAAATTTATCACCCGCCATAGTAGACGTATCACCAGG/CTTGCTACACGATTCAGACTTAGGAATGTTCGACATGCGAGGGTCCAATACCGACGATTACAG/GGTGATAAAACGTGTAGCAAGCTGTAATCGACGGGAAGAGCATGCCCATCCACTACTATGGCG/CCTCGCATGACTCAACTGCCTGGTGATACGAGGATGGGCATGCTCTTCCCGACGGTATTGGAC; test: as above
[11] = system: TSDzyme (in) (DNA, G4) GGGTAGGGCGGGTTGGGCCAGGCAGTTGAGACGAACATTCCTAAGTCTGAAATTTATCACCCGCCATAGTAGACGTATCA/CTTGCTACACGATTCAGACTTAGGAATGTTCGACATGCGAGGGTCCAATACCGACGATTACAG/GGTGATAAAACGTGTAGCAAGCTGTAATCGACGGGAAGAGCATGCCCATCCACTACTATGGCG/CCTCGCATGACTCAACTGCCTGGTGATACGAGGATGGGCATGCTCTTCCCGACGGTATTGGAC; test: as above
[12] = system: Hairpin-based allosteric TSDzyme (DNA, G4) AGGCAGTTGAGACGAACATTCCTAAGTCTGAAATTTATCACCCGCCATAGTAGACGTATCACC/CTTGCTACACGATTCAGACTTAGGAATGTTCGACATGCGAGGGTCCAATACCGACGATTACAG/GGTGATAAAACGTGTAGCAAGCTGTAATCGACTCTAGCGGAAGAACCCACAACCGCGGCTCACTACTATGGCG/GGGTAGGGCGGGTTGGGTTAGAGACGGTATTGGACCCTCGCATGACTCAACTGCCTGGTGATACGAGAGCCTGGGTAGGGCGGGTTGGG; test: as above
[13] = system: ATP-based allosteric TSDzyme (DNA, G4) AGGCAGTTGAGACGAACATTCCTAAGTCTGAAATTTATCACCCGCCATAGTAGACGTATCACC/CTTGCTACACGATTCAGACTTAGGAATGTTCGACATGCGAGGGTCCAATACCGACGATTACAG/GGTGATAAAACGTGTAGCAAGCTGTAATCGACTCTAACCTGGGGGAGTATTGCGGAGGAAGGTGGCTCACTACTATGGCG/GGGTAGGGCGGGTTGGGTTAGAGACGGTATTGGACCCTCGCATGACTCAACTGCCTGGTGATACGAGAGCCTGGGTAGGGCGGGTTGGG; test: as above
[14] = system: ATP-based allosteric TSDzyme (DNA, G4) AGGCAGTTGAGACGAACATTCCTAAGTCTGAAATTTATCACCCGCCATAGTAGACGTATCACC/CTTGCTACACGATTCAGACTTAGGAATGTTCGACATGCGAGGGTCCAATACCGACGATTACAG/GGTGATAAAACGTGTAGCAAGCTGTAATCGACTCTAACCTGGGGGAGTATTGCGGAGGAAGGTGGCTCACTACTATGGCG/GGGTAGGGCGGGTTGGGTTAGAGACGGTATTGGACCCTCGCATGACTCAACTGCCTGGTGATACGAGAGCCTGGGTAGGGCGGGTTGGG; test: allosteric change of peroxidase activity; settings: 0.5 mM ATP

SMILES | KD [1] [µM] | KD [2] [µM] | KD [3] [µM] | KD [4] [µM] | KD [5] [µM] | KD [6] [µM] | KD [7] [µM] | KD [8] [µM] | -ΔGfree [9] [kcal/mol] | -ΔGtetra [10] [kcal/mol] | -ΔGtetra [11] [kcal/mol] | -ΔGtetra [12] [kcal/mol] | -ΔGtetra [13] [kcal/mol] | binding [14]
C=CC1=C(C)C2=Cc3c(C=C)c(C)c4[n]3[Fe]([Cl])[n]3c(c(C)c(CCC(=O)O)c3=CC3=NC(=C4)C(C)=C3CCC(=O)O)=CC1=N2 | 1.2 ± 0.2 | 1.3 ± 0.2 | 1.3 ± 0.4 | 0.50 ± 0.15 | 0.45 ± 0.17 | 2.2 ± 0.5 | 0.75 ± 0.23 | 0.70 ± 0.14 | 7.72 ± 0.14 | 8.34 ± 0.17 | 8.39 ± 0.12 | 8.58 ± 0.17 | 8.65 ± 0.22 | 
Nc1ncnc2c1ncn2[C@@H]1O[C@H](COP(=O)(O)OP(=O)(O)OP(=O)(O)O)[C@@H](O)[C@H]1O |  |  |  |  |  |  |  |  |  |  |  |  |  | yes
